Measurements: patent US20190119193A1, “COMPOSITION FOR REGULATING PLANT GROWTH, METHOD FOR TREATING PLANTS THEREWITH, AND ACTIVE INGREDIENT THEREOF” (Ivan Aleksandrovich Starikov, priority 2016, published 2019)

Test system: soybean seeds (“Vilana” variety)
Assay: Laboratory tests of DMOA and DEOA for soybean seeds
Type: in vivo
Conditions: for Germinative energy: day 3; for Germinative capacity / Number of lateral roots / Sprout height / Taproot length: day 7
Experimental: After that DMOA and DEOA were dissolved in dimethyl sulfoxide to give solutions of 10 g/L concentration, then water was added to give aqueous solutions of DMOA with concentrations of 5.5·10^−5 M, 5.5·10^−6 M, 5.5·10^−7 M, 5.5·10^−8 M, 5.5·10^−9 M and DEOA with concentrations of 4.8·10^−5 M, 4.8·10^−6 M, 4.8·10^−7 M, 4.8·10^−8 M, 4.8·10^−9 M.
The obtained aqueous solutions of DMOA and DEOA were tested in the Scientific Center of Soil-Ecological Reasearch of the Federal State-Funded Educational Institution of Higher Education “Russian State Agrarian University—Moscow Agricultural Academy named after K. A. Timiryazev” (Moscow, 2015) according to the method described by T. A. Sergeeva (Method of laboratory testing of herbicides, Plant protection, 1963, No. 2, pp. 42-43). The primary laboratory screening of DMOA and DEOA was carried out on the seeds of five different crops: sunflower of “Voronezh 638” variety, soybean of “Vilana” variety, alfalfa of “Vega” variety, cucumber of “Nezhinsky” variety and tomato of “Volgogradets” variety.
Water was used as a reference.
A single experiment was carried out in a Petri dish. A circle of filter paper was laid at the bottom of the dish and treated with 5 ml of the work solution selected for the experiment. After that 25 seeds were uniformly laid on the surface of the treated filter paper. The Petri dish was kept at a temperature of 21-23° C. with illumination by fluorescent lamps for 7 days. The fourfold replication of the experiment within a single variant was applied.
The experiment identified the number and percentage of normally germinated seeds on day 3 (germinative energy) and on day 7 (germinative capacity) after the beginning of the experiment. On day 7 the main biometric parameters were also measured: sprout height (mm), taproot length (mm) and number of lateral roots (pcs).
The results were processed with the method of variance analysis with the help of STRAZ software in order to get the LSD0.05 (least significant difference between the test results on 5% significance level).

CCOC(=O)C=C([O-])C(=O)OCC.[Na+] [DEOA, sodium salt of diethyl ester of oxaloacetic acid]
Germinative energy (4.8 · 10^−5 M): 87 ↑ %
Germinative capacity (4.8 · 10^−5 M): 93%
Number of lateral roots (4.8 · 10^−5 M): 0.3 pcs.
Sprout height (4.8 · 10^−5 M): 15.3 mm
Taproot length (4.8 · 10^−5 M): 45.3 ↑ mm
Germinative energy (4.8 · 10^−6 M): 75%
Germinative capacity (4.8 · 10^−6 M): 87%
Number of lateral roots (4.8 · 10^−6 M): 0.6 pcs.
Sprout height (4.8 · 10^−6 M): 19.0 ↑ mm
Taproot length (4.8 · 10^−6 M): 37.7 mm
Germinative energy (4.8 · 10^−7 M): 72%
Germinative capacity (4.8 · 10^−7 M): 90%
Number of lateral roots (4.8 · 10^−7 M): 0.3 pcs.
Sprout height (4.8 · 10^−7 M): 14.7 mm
Taproot length (4.8 · 10^−7 M): 36.2 mm
Germinative energy (4.8 · 10^−8 M): 73%
Germinative capacity (4.8 · 10^−8 M): 93%
Number of lateral roots (4.8 · 10^−8 M): 0.4 pcs.
Sprout height (4.8 · 10^−8 M): 14.3 mm
Taproot length (4.8 · 10^−8 M): 33.6 mm
Germinative energy (4.8 · 10^−9 M): 80%
Germinative capacity (4.8 · 10^−9 M): 99 ↑ %
Number of lateral roots (4.8 · 10^−9 M): 1.2 ↑↑ pcs.
Sprout height (4.8 · 10^−9 M): 17.1 mm
Taproot length (4.8 · 10^−9 M): 46.5 ↑ mm

Sodium salt of dimethyl ester of oxaloacetic acid [DMOA]
Germinative energy (5.5 · 10^−5 M): 78%
Germinative capacity (5.5 · 10^−5 M): 89%
Number of lateral roots (5.5 · 10^−5 M): 0.2 pcs.
Sprout height (5.5 · 10^−5 M): 16.0 mm
Taproot length (5.5 · 10^−5 M): 35.5 mm
Germinative energy (5.5 · 10^−6 M): 82%
Germinative capacity (5.5 · 10^−6 M): 97%
Number of lateral roots (5.5 · 10^−6 M): 0.0 pcs.
Sprout height (5.5 · 10^−6 M): 19.0 ↑ mm
Taproot length (5.5 · 10^−6 M): 37.6 mm
Germinative energy (5.5 · 10^−7 M): 65%
Germinative capacity (5.5 · 10^−7 M): 90%
Number of lateral roots (5.5 · 10^−7 M): 0.0 pcs.
Sprout height (5.5 · 10^−7 M): 19.0 ↑ mm
Taproot length (5.5 · 10^−7 M): 39.5 mm
Germinative energy (5.5 · 10^−8 M): 77%
Germinative capacity (5.5 · 10^−8 M): 87%
Number of lateral roots (5.5 · 10^−8 M): 0.0 pcs.
Sprout height (5.5 · 10^−8 M): 19.5 ↑↑ mm
Taproot length (5.5 · 10^−8 M): 38.4 mm
Germinative energy (5.5 · 10^−9 M): 72%
Germinative capacity (5.5 · 10^−9 M): 83%
Number of lateral roots (5.5 · 10^−9 M): 0.0 pcs.
Sprout height (5.5 · 10^−9 M): 17.8 ↑ mm
Taproot length (5.5 · 10^−9 M): 37.0 mm
